This is an account of results in patent publication USRE40033E1, “Process for preparing 2-methyl-thieno-benzodiazepine” (Eli Lilly and Company, priority 1991, dated 2008).

The subject of one data set is dogs. Description: Dog toxicity studies, cholesterol levels. It is filed as in vivo. The following applies: dosage of 8 mg/kg stated for the 2-ethyl compound.
The target in another data set is T1, 5-HT-1C receptor (Homo sapiens, UniProt P28335).
T1 sequence (P28335 33-458): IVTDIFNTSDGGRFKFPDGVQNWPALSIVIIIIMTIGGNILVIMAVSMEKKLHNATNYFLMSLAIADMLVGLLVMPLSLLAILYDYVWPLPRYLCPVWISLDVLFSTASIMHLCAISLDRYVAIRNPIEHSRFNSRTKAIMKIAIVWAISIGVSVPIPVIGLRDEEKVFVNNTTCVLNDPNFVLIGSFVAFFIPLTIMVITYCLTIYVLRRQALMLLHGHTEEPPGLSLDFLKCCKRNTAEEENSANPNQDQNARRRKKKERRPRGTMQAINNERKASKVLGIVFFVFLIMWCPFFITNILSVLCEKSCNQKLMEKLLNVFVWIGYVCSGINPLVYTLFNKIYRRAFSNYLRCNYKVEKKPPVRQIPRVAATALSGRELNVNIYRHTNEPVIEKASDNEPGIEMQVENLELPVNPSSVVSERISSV
Description: Activity at the 5-HT-1C receptor. It is filed as binding.

The next data set relates to D-1 and D-2 receptors. Description: Prevention of EEDQ disruption of the apomorphine-induced climbing response. Conditions: 24 hour pretreatment with EEDQ. It is filed as in vivo.
Data set [1] concerns patients. Conditions: compared with flumezapine.
For data set [2], the system named is mice. Description: Apomorphine-induced hypothermia. It is filed as in vivo.
Data set [3] concerns rats. Description: Conditioned avoidance response. It is filed as in vivo. Conditions: Rattus norvegicus, read-out: ED50, inhibition of conditioned avoidance response.
In data set [4] the test system is mice. Kind of data set: Apomorphine-induced climbing behaviour. It is filed as in vivo.
Data set [5] deals with rats. Description: Multiple conflict schedule (Geller and Seifter). It is filed as in vivo. Conditions: dosed orally 60 minutes before testing. The text has this:
Moore, Nicholas A. et al., The Journal of Pharmacology and Experimental Therapeutics. 545-551, 262:2 (1992). The test measures characteristic changes in rates of responding associated with anxiolytic agents. The conflict procedure results are indicative of favorable anxiolytic activity.
The conflict procedure used was based on the method of Geller and Seifter, Psychopharmacologia 1: 482-492, (1960). Rats were trained on a multiple schedule consisting of three components. Individual components were as follows: 1) for 9 minutes, lever pressing was reinforced on a variable interval 30 second schedule (VI 30, reward). This period was signaled by illumination of the houselight alone. 2) During the following 3-minute period, lever presses were recorded but had no programmed consequence (time-out). 3) Lever pressing was reinforced according to a fixed ratio 10 second food presentation (FR10) for 3 minutes; however, each reinforced response was accompanied by an electric current (0.5 mA) being applied to the grid floor for 500 msec (conflict). This component was signaled by illumination of the houselight and three cue lights on the front panel. This sequence of three components (reward/time-out/conflict) was presented twice in the same order during the daily 30 minute session.
After the training procedure, drug testing was initiated. […]

Data set [6] has as its system noradrenergic α-receptors. Kind of data set: Pharmacological tests, noradrenergic α-receptors. From the text: These properties indicate that the compound is a potential neuroleptic with relaxant, anxiolytic and anti-emetic properties, and may be useful in treating psychotic conditions such as, but not limited to, schizophrenia, schizophreniform diseases and mania. At lower doses the compound is indicated for use in the treatment of mild anxiety states.

Data set [7] can be described thus: Studies using radiolabelled compound, saliva residues. It is filed as in vivo. On the procedure: For example, in the treatment of adult humans, dosages of from 0.25 to 30 mg, preferably from 1 to 20 mg, per day may be used. A once a day dosage is normally sufficient, although divided doses may be administered. For treatment of psychotic disorders a dose range of from 1 to 20 mg, preferably 2.5 to 15 mg per day is suitable, whereas for mild anxiety states a lower dosage range, such as from 0.25 to 5 mg, preferably 1 to 5 mg, may be more appropriate. In choosing a suitable regimen for patients suffering from psychotic illness it may frequently be necessary to begin with a dosage of from 1 to 20 mg per day and when the illness is under control to reduce to a dosage as low as 1 mg per day.

Data set [8] concerns patients. The following applies: cited from earlier work.
Data set [9] deals with psychiatric patients suffering from schizophrenia. Description: Clinical trial of flumezapine in psychiatric patients suffering from schizophrenia. It is filed as in vivo, human. The text has this: The lead compound from this group, flumezapine, (7-fluoro-2-methyl-10-(4-methyl-1-piperazinyl)-4H-thieno[2,3-b][1,5]-benzodiazepine), was developed to the stage of being clinically administered to psychiatric patients suffering from schizophrenia. A total of 17 patients received treatment with flumezapine before the clinical trial was terminated after consultation with the U.S. Food and Drug Administration, because of an unacceptably high incidence of raised enzyme levels in the treated patients. […] In respect of its tendency to raise liver enzyme levels, flumezapine is similar to chlorpromazine, an antipsychotic which has long been in use but whose safety has been called into question.

Usually ED50 stands for the dose at which the effect has come halfway, by size or by number of responders. Consider `Cc1cc2c(s1)Nc1ccccc1N=C2N1CCN(C)CC1`, for which the “rise in cholesterol levels” value in the data set on dogs was “did not show any rise in cholesterol levels”. In addition, on 5-HT-1C receptor, the “activity at the 5-HT-1C receptor” value is “active”. The “active dose, prevention of disruption of climbing response by EEDQ” value in the data set with D-1 and D-2 receptors is “less than 10 mg/kg”. Besides, the “plasma levels of creatinine phosphokinase (CPK)” value in the data set on patients [1] is recorded as “lower than with flumezapine”. Further, in the data set on mice [2], the “dose antagonizing apomorphine-induced hypothermia” value was “less than 10 mg/kg”. Moreover, the ED50 in the data set with rats [3] lay within 4 to 7 mg/kg. In addition, the “dose antagonizing apomorphine-induced climbing behaviour” value in the data set with mice [4] is “less than 10 mg/kg”. Besides, the “active dose in multiple conflict schedule” value in the data set with rats [5] is on record as “less than 5 mg/kg”. Further, in data set [6], the “activity at noradrenergic α-receptors” value was “antagonist activity”. In addition, in data set [7], the residues in saliva result is given as “residues have been detected in the saliva”.

On to `CN1CCN(C2=Nc3cc(Cl)ccc3Nc3ccccc32)CC1` [clozapine], for which, in the data set with patients [8], the “reported clinical side effects” value was “cause agranulocytosis in some patients”.

With `O=C(CCCN1CCC(O)(c2ccc(Cl)cc2)CC1)c1ccc(F)cc1` [haloperidol], in the data set with patients [8], the “reported clinical side effects” value was “high incidence of extrapyramidal symptoms”.

On to `CCc1cc2c(s1)Nc1ccccc1N=C2N1CCN(C)CC1` [2-ethyl-4-(4-methyl-1-piperazinyl)-10H-thieno[2,3-b][1,5]benzodiazepine, reference compound], for which the “rise in cholesterol levels” value in the data set with dogs is “four out of eight dogs showed a significant rise in cholesterol levels”.

In the case of `Cc1cc2c(s1)Nc1ccc(F)cc1N=C2N1CCN(C)CC1` [flumezapine, 7-fluoro-2-methyl-10-(4-methyl-1-piperazinyl)-4H-thieno[2,3-b][1,5]-benzodiazepine], the “enzyme levels CPK, SGOT and SGPT in blood samples” value in [9] (17 patients treated, trial terminated) was “in substantial excess of normal values”. Further, the “emergence of extrapyramidal side effects as measured on the AIMS scale” value in data set [9] (clinical trials) was “two of the patients showed the emergence of extrapyramidal side effects”.
